Laboratory results published in patent US20230295152A1 (SENDA BIOSCIENCES, INC., priority 2019, published 2023).
Read-outs that look alike come from different tables or passages of the source.

Key:
AHR = biological target: T1, AHR (Homo sapiens, UniProt P35869); assay: DRE-Luciferase Reporter Assay, HepG2 AhR-Lucia reporter cells; type: cell-based; details: with AHR activating ligand at EC50, read-out: HepG2-Luc IC50
T1 construct: other cell line with a DRE-luciferase reporter stably transfected; endogenous in cells; host or cells: HepG2 AhR-Lucia reporter cells
T1 sequence (P35869 11-848): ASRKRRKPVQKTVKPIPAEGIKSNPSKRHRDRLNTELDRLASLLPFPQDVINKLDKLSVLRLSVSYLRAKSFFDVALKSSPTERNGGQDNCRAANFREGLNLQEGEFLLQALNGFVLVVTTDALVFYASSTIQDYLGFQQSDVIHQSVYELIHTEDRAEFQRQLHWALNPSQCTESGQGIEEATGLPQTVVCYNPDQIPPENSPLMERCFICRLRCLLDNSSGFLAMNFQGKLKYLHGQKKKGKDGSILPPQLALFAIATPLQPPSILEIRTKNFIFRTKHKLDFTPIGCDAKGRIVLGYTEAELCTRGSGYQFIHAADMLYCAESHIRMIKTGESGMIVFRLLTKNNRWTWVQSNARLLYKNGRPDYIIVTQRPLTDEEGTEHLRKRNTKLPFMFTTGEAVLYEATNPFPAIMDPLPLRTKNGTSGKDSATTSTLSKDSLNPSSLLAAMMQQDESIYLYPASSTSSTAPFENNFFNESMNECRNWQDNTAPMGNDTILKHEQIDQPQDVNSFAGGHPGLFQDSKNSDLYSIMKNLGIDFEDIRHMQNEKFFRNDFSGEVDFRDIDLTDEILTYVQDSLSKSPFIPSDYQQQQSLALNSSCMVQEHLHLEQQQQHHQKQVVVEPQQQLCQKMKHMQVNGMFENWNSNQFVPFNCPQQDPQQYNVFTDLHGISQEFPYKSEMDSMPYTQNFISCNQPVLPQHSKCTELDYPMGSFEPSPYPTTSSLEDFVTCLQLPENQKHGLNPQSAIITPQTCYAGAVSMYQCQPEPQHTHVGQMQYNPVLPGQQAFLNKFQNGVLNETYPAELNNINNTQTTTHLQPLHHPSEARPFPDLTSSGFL
How it was run: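 Antagonism read as inhibition of agonist-driven secreted luciferase in stably DRE-reporter-transfected cells such as HepG2 AhR-Lucia. Agonist ligand at EC50 concentration added 1 hr post-plating alongside antagonist (log series, top 100 uM); supernatant read at 24 or 48 h, IC50 derived against agonist-only maximum.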

[1] = Solubility Determination Assay in PBS pH 1.6 and pH 7.4; type: physicochemical; details: PBS buffer, aqueous buffer, kinetic from dmso stock
Protocol: The stock solutions of test compounds and control compound progesterone were prepared in DMSO at the concentrations of 10 mM. 15 μL of stock solution (10 mM) of each sample was placed in order into their proper 96-well rack. 485 μL of PBS pH 1.6 and pH 7.4 were added into each vial of the cap-less Solubility Sample plate. The assay was performed in singlet. One stir stick was added to each vial and then the vial was sealed using a molded PTFE/Silicone plug. […] After completion of the 2 hours, plugs were removed and the stir sticks were removed using a big magnet. The samples from the Solubility Sample plate were transferred into the filter plate. Using the Vacuum Manifold, all the samples were filtered. An aliquot of 5 μL was taken from the filtrate followed by addition of 495 μL of a mixture of H2O and acetonitrile containing internal standard (1:1). A certain proportion of ultrapure water was used to dilute the diluent according to the peak shape. The dilution factor was changed according to the solubility values and the LC-MS signal response.
From the 10 mM DMSO STD plate, 6 μL was transferred into the remaining empty plate, and then 194 μL of DMSO were added to that plate to have a STD concentration of 300 μM. From the 300 μM DMSO STD plate, 5 μL were transferred into the remaining empty plate, and then 495 μL of a mixture of H2O and acetonitrile containing internal standard (1:1) were added to that plate to have a final STD concentration of 3 μM. A certain proportion of ultrapure water was used to dilute the diluent according to the peak shape. The concentrations of the standard samples were changed according to the LC-MS signal response.
The plate was placed into the well plate autosampler. The samples were evaluated by LC-MS/MS analysis.
All calculations were carried out using Microsoft Excel.
The filtrate was analyzed and quantified against a standard of known concentration using LC coupled with mass spectral peak identification and quantitation. Solubility values of the test compound and control compound were calculated as follows: […]
Any value of the compounds that was not within the specified limits was rejected and the experiment was repeated.
“+++” indicates a solubility value equal to or greater than 1 μM, “++” indicates a solubility value between 0.1 and 1 μM, and “+” indicates a solubility value less than 0.1 μM.

[2] = Liver Microsome Stability Assay, human; type: in vitro ADME; details: human liver microsomes
Protocol: Two separate experiments were performed as follows.
With Cofactors (NADPH): 25 μL of 10 mM NADPH was added to the incubations. The final concentrations of microsomes and NADPH were 0.5 mg/mL and 1 mM, respectively. The final concentration of microsomes was 0.5 mg/mL. The mixture was pre-warmed at 37° C. for 10 minutes. The reaction was started with the addition of 2.5 μL of 100 μM control compound or test compound solutions. Verapamil was used as positive control in this study. The final concentration of test compound or control compound was 1 μM. The incubation solution was incubated in water batch at 37° C. Aliquots of 25 μL were taken from the reaction solution at 0.5, 5, 15, 30 and 60 minutes. The reaction was stopped by the addition of 5 volumes of cold acetonitrile with IS (200 nM caffeine and 100 nM tolbutamide). Samples were centrifuged at 3, 220 g for 40 minutes. Aliquot of 100 μL of the supernatant was mixed with 100 μL of ultra-pure H2O and then used for LC-MS/MS analysis.
Data Analysis: All calculations were carried out using Microsoft Excel. Peak areas were determined from extracted ion chromatograms. The slope value, k, was determined by linear regression of the natural logarithm of the remaining percentage of the parent drug vs. incubation time curve.
The in vitro half-life (in vitro t1/2) was determined from the slope value:
Conversion of the in vitro t1/2 (min) into the in vitro intrinsic clearance (in vitro CLint, in μL/min/mg protein) was done using the following equation (mean of duplicate determinations): […]
The calculations of Scaled-up CLint(mL/min/kg), Predicted CLH (mL/min/kg) and EH were done using the following equation:
Scaled-up CLint=(0.693/t1/2)×(1/(microsomal protein concentration(0.5 mg/mL)))×Scaling Factors;Predicted CLH=(QH×Scaled-up CLint×fub)/(QH+Scaled-up CLint×fub);EH=Predicted CLH/QH
where QH is the hepatic blood flow (mL/min/kg) (Table 32), • fub is the fraction of unbound drug in plasma which is assumed to be 1.
“+++” indicates a Clint value less than 10 mL/min/Kg, […] indicates a Clint between 10 and 20 mL/min/Kg, and “+” indicates a Clint above 20 mL/min/Kg.

[3] = PBS pH 1.6, 25° C., read-out: Aq. Solubility at pH = 1.6
[4] = PBS pH 7.4, 25° C., read-out: Aq. Solubility at pH = 7.4

| IC50 (AHR) [nM] | solubility at 2 h [1, 3] [µM] | solubility at 2 h [1, 4] [µM] | Compound | Human liver microsome clearance [2] |
| --- | --- | --- | --- | --- |
| < 100 | ≥ 1 | < 0.1 | C[C@H](n1cnc2c(-c3cccnc3)nc(-c3ccc(Cl)cc3)cc2c1=O)C(C)(C)O [Compound 36] | +++ (“+++” indicates a Clint value less than 10 mL/min/Kg) |
| < 100 | < 0.1 | < 0.1 | C[C@@H](CO)n1cnc2c(-c3cccc(F)c3)nc(-c3ccc(OC(F)(F)F)cc3)cc2c1=O [Compound 49, 8-(3-fluorophenyl)-3-[(1S)-2-hydroxy-1-methyl-ethyl]-6-[4-(trifluoromethoxy)phenyl]pyrido[3,4-d]pyrimidin-4-one] | +++ (“+++” indicates a Clint value less than 10 mL/min/Kg) |
